Results published in patent publication US7053043B1, “Pharmaceutical compositions comprising synthetic peptide copolymers and methods for preventing and treating GVHD and HVGD” (Yeda Research and Development Co.Ltd., priority 1999, dated 2006).
Values joined by “and” are separate entries in the source; they are usually repeats but may differ in a detail not shown here. Identical values can stand only once.

Tests used:
[1] = system: proliferation of B10.PL (H-2u) responder cells to PL/J stimulator cells; test: Mixed lymphocyte reaction (MLR) across minor histocompatibility barriers; type: cell-based, mice; settings: 20 μg/well, Cop 1 Batch I, 1:1 ratio of responder to stimulator cells
Method: (§1) Responder cells for MLR reactions across major histocompatibility barriers were harvested from spleen of non-immunized mice while responder cells for MLR across minor histocompatibility barriers were harvested from mice which were preimmunized with irradiated (30 Gy) 50×10^6 stimulator spleen cells 21 days before. Responder cells (5×10^5 spleen cells per well) were tested for their proliferative response by plating with different amounts (2.5 to 10×10^5) of irradiated stimulator cells, in presence or absence of various peptide inhibitors (10–100 μg per well). Cultures were set up in 200 μl media containing 10% FCS in flat-bottom microtiter plates. After 4 days of incubation, cultures were pulsed with 1 μCi of [^3H]thymidine for an additional 16 hours. Results are represented as mean counts per minute (cpm) thymidine incorporation from triplicate cultures.
To investigate the feasibility of inhibition of MLR by Copolymer 1, an MLR system was developed in which Copolymer 1 was tested for its ability to inhibit the proliferation of B10.PL (H-2^u) responder cells to stimulator cells of either the same (PL/J) or different (BALB/c) H-2 haplotype. For comparison, the inhibitory MBP Ac 1-11[4A], MBP 35-47, a combination of Ac 1-1[4A]+MBP 35-47, MBP 89-101 and KM-core peptides, described in Schlegel et al. (1994), were used in the MLR experiments.
The inhibition obtained by Copolymer 1 was similar (in response to minor histocompatibility antigen) or even higher (in response to major histocompatibility antigen) than the inhibition obtained with the combination of the two synthetic peptides Ac 1-11[4A] and MBP 35-47, which specifically bind to the class II molecules I-A^u and the I-E^u, respectively. The molar efficiency of Copolymer 1 of M.W. 6000 is even higher since the molecular weight of the synthetic peptides is 4–5 fold lower.

[2] = system: T cell proliferation in MHC-disparate mixed lymphocyte cultures; test: Mixed lymphocyte cultures across major histocompatibility barriers, six MHC-disparate strain combinations; type: cell-based, mice
Method: as §1

[3] = system: GVHD in B10.D2 → BALB/c recipients; test: Murine lethal GVHD model after bone marrow transplantation, B10.D2/nSnJ→BALB/c; type: in vivo, mice; settings: for overall incidence of GVHD: 600 μg per injection (ip + sc)
Method: The murine GVHD model of B10.D2/nSnJ→BALB/c mice (both H-2^d) across minor histocompatibility barriers, was selected since it is similar to the MHC matched bone marrow transplantation in humans. For the induction of GVHD, 10×10^6 bone marrow and 100×10^6 spleen cells from B10.D2 mice were injected into lethally irradiated (8.0 Gy) BALB/c recipients. […] Recipient mice were 12–13 weeks at the time of transplantation.
Based on previous studies with Cop 1 in EAE (Sela et al., 1990; Teitelbaum et al., 1971; Teitelbaum et al., 1973) and class II-binding competitor peptides in GVHD (Schlegel et al., 1994), the dosage of 600 μg per injection was selected, half of which was administered intraperitoneally (ip), whereas the other half was given subcutaneously (sc). Treatment of BALB/c recipient mice was initiated on day −1, followed by daily injections for the first five weeks starting on day 0 after transplantation. The frequency of injections was tapered to three times per week for the subsequent two weeks and to two times per week for another two weeks and then discontinued. Throughout the experiment, copolymers and controls were administered once a week with incomplete Freund's adjuvant (IFA) ip as a depot dose (Schlegel et al., 1994). Treatment was discontinued 9 weeks after transplantation.
Mice were followed up daily for 140 days after bone marrow transplantation for signs of GVHD. Disease severity was assessed by mortality, loss of body weight, and by the extent of macroscopic skin involvement scored on a cumulative scale (from min O— max 8): head 1, neck 1, back (1/3, 2/3, 3/3) 1–3, front (1/3, 2/3, 3/3) 1–3. Skin biopsies were examined as previously described (Schlegel et al., 1994).
(ii) Effect of Copolymer 1 Treatment on the Incidence, Onset and Severity of GVHD. […] For the first five weeks after transplant mice were injected daily as outlined in Materials and Methods, followed by a tapering schedule over an additional four weeks.
(iii) Effect of Copolymer 1 treatment on survival. […]

skin graft rejection = test: Skin graft transplantation model for HVGD; type: in vivo, mice
Method: Recipient mice were dorsally transplanted with circular pieces of donor skin. Mice were inspected daily. Grafts were considered rejected when no viable donor epidermis remained. The results are expressed in mean survival time (MST). P values were obtained by analysis of variance (ANOVA).
[…] The first Cop 1 treatment on day −7 was injected sc in ICFA as a depot dose. Control mice were treated daily with PBS alone and PBS with ICFA on day −7 before transplantation.
Grafts were inspected daily. Rejection was considered positive when no viable donor epidermis remained. […]

[4] = system: B10.D2 responder spleen cells with irradiated C57BL/6 spleen stimulator cells; test: MLR primary assay, Table 1; type: cell-based, mice; settings: [3H]-thymidine after 96 hours
Method: The effect of Copolymer 1 (Batch I) on mixed lymphocyte cultures across major histocompatibility barriers was tested. T cell proliferation was assessed in six different MHC-disparate strain combinations. […] To exclude the possibility that higher concentrations of Copolymer 1 (50–100 μg/well) might be toxic to the responder cells, responder cells from background well and from wells incubated with 25–100 μg/well of Copolymer 1 in the presence of stimulator cells for 72 hours in a primary assay, were rechallenged in a subsequent secondary assay with IL-2 (5,000 U/well).

Glatiramer acetate [Cop 1]
inhibition of MLR [1]: 63%
inhibitory effect on the MLC ([2]; 10–100 μg/well, all concentrations tested): dose-dependent inhibition
concentration sufficient to achieve 50% inhibition of the proliferative responses ([2]; Batch I): 10–25 μg/well
Maximum inhibition ([2]; all strain combinations tested): 100%
long-term survival from lethal graft-versus-host disease ([3]; 600 μg per injection): improved long-term survival
animals (without GVHD) to the observation period of 140 days after transplant ([3]; 600 μg per injection, Batch I): Nine of 25
mice survived more than 140 days after transplant ([3]; 600 μg per injection, Batch I): 56%
overall disease severity (disease severity score, mean body weight curves) ([3]; 600 μg per injection, Batch I): improved overall disease severity
overall incidence of GVHD ([3]; day 30 after transplant, Cop 1 Batch I): 12%
overall incidence of GVHD ([3]; day 70 after transplant, Cop 1 Batch I): 48%
median onset of GVHD ([3]; days after transplant, 600 μg per injection): 73 days
onset of GVHD, range ([3]; days after transplant, in 12/25 treated animals, 600 μg per injection): 32 to 112 days
mice survived more than 140 days after transplant ([3]; survivors/treated, 600 μg per injection, Cop 1 Batch I): 14/25
MST ± SD (Mean Survival Time of skin graft) (skin graft rejection; B10.D2 → BALB/c, H-2d, Cop 1 600 μg/day (ip+sc) from day −7): 20.6 days and 20.6 ± 3.3 days
MST ± SD (Mean Survival Time of skin graft) (skin graft rejection; B10.D2 → BALB/c, H-2d, Cop 1 600 μg/day (ip+sc) from day −7, listed as Copolymer 1): 20.6 days
mean graft survival time (MST) (skin graft rejection; B10.D2 → BALB/c, 600 μg/day, text refers to Table 6, PBS 26 days): 34 days
MST ± SD (Mean Survival Time of skin graft) (skin graft rejection; B10.D2 → BALB/c, Cop 1 300 μg/day): 20.4 ± 4.5 days
MST ± SD (Mean Survival Time of skin graft) (skin graft rejection; B10.D2 → BALB/c, Cop 1 300 μg/day, listed as Copolymer 1): 20.4 days
MST ± SD (Mean Survival Time of skin graft) (skin graft rejection; B10PL → PL/J, H-2u, Cop 1 600 μg/day): 17.6 ± 5.1
MST ± SD (Mean Survival Time of skin graft) (skin graft rejection; C57BL → C3HSW, H-2b → H-2d, Cop 1 600 μg/day): 18.5 ± 3.3
MST ± SD (Mean Survival Time of skin graft) (skin graft rejection; Haplotype H-2b, Cop 1 600 μg/day): 17.7 ± 2.1
Primary Assay cpm ([4]; Cop 1 25 μg/well (Batch I)): 15,953 cpm
Primary Assay cpm ([4]; Cop 1 50 μg/well (Batch I)): 3,663 cpm
Primary Assay cpm ([4]; Cop 1 100 μg/well (Batch I)): 283 cpm
